tested on: Endogenous Huntingtin Protein; assay: Endogenous Huntingtin Protein Assay (ELISA-based MSD electrochemiluminescence); type: cell-based; conditions: Table 1
In short: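 Huntingtin was captured overnight at 4 °C on plates coated with 1 μg/mL MW1 (polyQ-expanded) or MAB2166 antibody and BSA-blocked. Detection used a rabbit monoclonal and then a SULFO-TAG goat anti-rabbit antibody (0.25 μg/mL, 1 h each, room temperature). Signal was read by electrochemiluminescence.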

SMILES	IC50
CN(c1nc2cnc(-c3cc(F)c4nn(C)cc4c3)cc2s1)C1CC(C)(C)NC(C)(C)C1 [Compound 86, 6-(7-fluoro-2-methyl-2H-indazol-5-yl)-N-methyl-N-(2,2,6,6-tetramethylpiperidin-4-yl)[1,3]thiazolo[4,5-c]pyridin-2-amine]	≤ 100 nM
Cc1cn2cc(-c3cc4sc(N(C)C5CC(C)(C)NC(C)(C)C5)nc4cn3)ccc2n1 [Compound 87, N-methyl-6-(2-methylimidazo[1,2-a]pyridin-6-yl)-N-(2,2,6,6-tetramethylpiperidin-4-yl)[1,3]thiazolo[4,5-c]pyridin-2-amine]	≤ 100 nM
Cc1cn2cc(-c3cc4sc(N(C)C5CC(C)(C)NC(C)(C)C5)nc4cn3)cc(C)c2n1 [Compound 88, 6-(2,8-dimethylimidazo[1,2-a]pyridin-6-yl)-N-methyl-N-(2,2,6,6-tetramethylpiperidin-4-yl)[1,3]thiazolo[4,5-c]pyridin-2-amine]	≤ 100 nM
Cc1cn2nc(-c3cc4sc(N(C)C5CC(C)(C)NC(C)(C)C5)nc4cn3)ccc2n1 [Compound 89, N-methyl-6-(2-methylimidazo[1,2-b]pyridazin-6-yl)-N-(2,2,6,6-tetramethylpiperidin-4-yl)[1,3]thiazolo[4,5-c]pyridin-2-amine]	500 to 1000 nM
Cc1cn2nc(-c3cc4sc(N(C)C5CC(C)(C)NC(C)(C)C5)nc4cn3)cc(C)c2n1 [Compound 90, 6-(2,8-dimethylimidazo[1,2-b]pyridazin-6-yl)-N-methyl-N-(2,2,6,6-tetramethylpiperidin-4-yl)[1,3]thiazolo[4,5-c]pyridin-2-amine]	100 to 500 nM
CN(c1nc2c(F)cc(-c3cc(C#N)c4nn(C)cc4c3)cc2s1)C1CC(C)(C)NC(C)(C)C1 [Compound 91, 5-{4-fluoro-2-[methyl(2,2,6,6-tetramethylpiperidin-4-yl)amino]-1,3-benzothiazol-6-yl}-2-methyl-2H-indazole-7-carbonitrile]	≤ 100 nM
Cc1cn2nc(-c3cc(F)c4nc(C5CCN(C)CC5)sc4c3)ccc2n1 [Compound 92, 6-[4-fluoro-2-(1-methylpiperidin-4-yl)-1,3-benzothiazol-6-yl]-2-methylimidazo[1,2-b]pyridazine]	≤ 100 nM
CCc1cc(-c2ccc3nc(N(C)C4CC(C)(C)NC(C)(C)C4)sc3c2)cn2cc(C)nc12 [Compound 93, 6-(8-ethyl-2-methylimidazo[1,2-a]pyridin-6-yl)-N-methyl-N-(2,2,6,6-tetramethylpiperidin-4-yl)-1,3-benzothiazol-2-amine]	100 to 500 nM
Cc1nc2c(C)cc(-c3ccc4nc(C5CCNCC5)sc4c3)cc2[nH]1 [Compound 94, 6-(2,4-dimethyl-1H-benzimidazol-6-yl)-2-(piperidin-4-yl)-1,3-benzothiazole]	≤ 100 nM
Cc1nc2ccc(-c3ccc4nc(C5CCNCC5)sc4c3)cc2[nH]1 [Compound 95, 6-(2-methyl-1H-benzimidazol-6-yl)-2-(piperidin-4-yl)-1,3-benzothiazole]	100 to 500 nM
Cc1cn2cc(-c3ccc4nc(N(C)C5CC(C)(C)NC(C)(C)C5)sc4c3)cc(C(F)(F)F)c2n1 [Compound 96, N-methyl-6-[2-methyl-8-(trifluoromethyl)imidazo[1,2-a]pyridin-6-yl]-N-(2,2,6,6-tetramethylpiperidin-4-yl)-1,3-benzothiazol-2-amine]	100 to 500 nM
Cc1cn2nc(-c3ccc4nc(C5CCNCC5)sc4c3)ccc2n1 [Compound 97, 2-methyl-6-[2-(piperidin-4-yl)-1,3-benzothiazol-6-yl]imidazo[1,2-b]pyridazine]	≤ 100 nM
COc1cc(-c2cc(C)c3nn(C)cc3c2)cc2sc(C3=CCNCC3)nc12 [Compound 98, 6-(2,7-dimethyl-2H-indazol-5-yl)-4-methoxy-2-(1,2,3,6-tetrahydropyridin-4-yl)-1,3-benzothiazole]	100 to 500 nM
COc1cc(-c2cc(C)c3nn(C)cc3c2)cc2sc(C3CCNCC3)nc12 [Compound 99, 6-(2,7-dimethyl-2H-indazol-5-yl)-4-methoxy-2-(piperidin-4-yl)-1,3-benzothiazole]	1000 to 3000 nM
Cc1cc(-c2cc(O)c3nc(C4=CCNCC4)sc3c2)cc2cn(C)nc12 [Compound 100, 6-(2,7-dimethyl-2H-indazol-5-yl)-2-(1,2,3,6-tetrahydropyridin-4-yl)-1,3-benzothiazol-4-ol]	500 to 1000 nM
Cc1cc(-c2ncc3nc(N(C)C4CC(C)(C)NC(C)(C)C4)sc3c2F)cc2cn(C)nc12 [Compound 101, 6-(2,7-dimethyl-2H-indazol-5-yl)-7-fluoro-N-methyl-N-(2,2,6,6-tetramethylpiperidin-4-yl)[1,3]thiazolo[4,5-c]pyridin-2-amine]	100 to 500 nM
Cn1cc2cc(-c3cc(F)c4nc(C5=CCNCC5)sc4c3)cc(C#N)c2n1 [Compound 102, 5-[4-fluoro-2-(1,2,3,6-tetrahydropyridin-4-yl)-1,3-benzothiazol-6-yl]-2-methyl-2H-indazole-7-carbonitrile]	≤ 100 nM
Cn1cc2cc(-c3cc(F)c4nc(C5CCNCC5)sc4c3)cc(CN)c2n1 [Compound 103, 1-{5-[4-fluoro-2-(piperidin-4-yl)-1,3-benzothiazol-6-yl]-2-methyl-2H-indazol-7-yl}methanamine]	≤ 100 nM
Cn1cc2cc(-c3cc(F)c4nc(C5CCNCC5)sc4c3)cc(C#N)c2n1 [Compound 104, 5-[4-fluoro-2-(piperidin-4-yl)-1,3-benzothiazol-6-yl]-2-methyl-2H-indazole-7-carbonitrile]	≤ 100 nM
Cc1cn2cc(-c3cc4sc(N(C)C5CC(C)(C)NC(C)(C)C5)nc4cn3)cnc2n1 [Compound 105, N-methyl-6-(2-methylimidazo[1,2-a]pyrimidin-6-yl)-N-(2,2,6,6-tetramethylpiperidin-4-yl)[1,3]thiazolo[4,5-c]pyridin-2-amine]	100 to 500 nM
CCN1CCC(c2nc3c(F)cc(-c4ccc5nc(C)cn5n4)cc3s2)CC1 [Compound 106, 6-[2-(1-ethylpiperidin-4-yl)-4-fluoro-1,3-benzothiazol-6-yl]-2-methylimidazo[1,2-b]pyridazine]	≤ 100 nM
Cc1cn2nc(-c3cc(F)c4nc(C5CCN(C)CC5)sc4c3)cc(C)c2n1 [Compound 107, 6-[4-fluoro-2-(1-methylpiperidin-4-yl)-1,3-benzothiazol-6-yl]-2,8-dimethylimidazo[1,2-b]pyridazine]	≤ 100 nM
Cc1cc(-c2ccc3nc(N(C)C4CCN(C)C(C)C4)sc3c2)cc2cn(C)nc12 (centres unmarked) [Compound 108, 6-(2,7-dimethyl-2H-indazol-5-yl)-N-(1,2-dimethylpiperidin-4-yl)-N-methyl-1,3-benzothiazol-2-amine]	500 to 1000 nM
Cn1cc2cc(-c3ncc4nc(C5CCNCC5)sc4n3)cc(C#N)c2n1 [Compound 109, 2-methyl-5-[2-(piperidin-4-yl)[1,3]thiazolo[5,4-d]pyrimidin-5-yl]-2H-indazole-7-carbonitrile]	100 to 500 nM
Cc1cc(-c2ncc3nc(C4CCNCC4)sc3n2)cc2cn(C)nc12 [Compound 110, 5-(2,7-dimethyl-2H-indazol-5-yl)-2-(piperidin-4-yl)[1,3]thiazolo[5,4-d]pyrimidine]	100 to 500 nM
Cc1cn2cc(-c3ccc4nc(N(C)C5CC(C)(C)NC(C)(C)C5)sc4c3)cc(F)c2n1 [Compound 111, 6-(8-fluoro-2-methylimidazo[1,2-a]pyridin-6-yl)-N-methyl-N-(2,2,6,6-tetramethylpiperidin-4-yl)-1,3-benzothiazol-2-amine]	≤ 100 nM
